Results as given in US11318232B2, “Compositions and methods for delivering drugs to a vessel wall” (Interface Biologics, Inc., priority 2018, dated 2022).

Tested on: Rat Aortic Smooth Muscle Cells (RASMCs)
Settings: drug spiked directly into growth media, 20 ng/mL

SMILES: CO[C@H]1C[C@@H]2CC[C@@H](C)[C@@](O)(O2)C(=O)C(=O)N2CCCC[C@H]2C(=O)O[C@H]([C@H](C)C[C@@H]2CC[C@@H](O)[C@H](OC)C2)CC(=O)[C@H](C)/C=C(\C)[C@@H](O)[C@@H](OC)C(=O)[C@H](C)C[C@H](C)/C=C/C=C/C=C/1C [sirolimus]
- Normalized cell growth at 72 hours: 0.463±0.035
